According to patent US10441578B2, “Altering expression level of glutathione S-transferase genes by treating a human subject with a nitroxide” (priority 2018, dated 2019):

How the values were obtained:
Type in all cases: in vivo
[1] = tested on: Glutathione S-transferase kappa1 (Gstk1); test: Microarray gene expression in white adipose tissue of Tempol-fed mice
Description: (§1) To assess the effects of Tempol on gene expression, Tempol was administered to experimental mice at a dose of 5 mg/g of food from 14 months to 31 months after birth. Mice receiving the same food without the addition of Tempol were used as a negative control. At the age of 31 months, the experimental animals were sacrificed and the hearts were surgically removed. The expression of a broad spectrum of genes in white adipose tissue tissue was assessed using chip-based microarray technology. Such chips are well known in the art and are widely used to assess gene expression.

[2] = tested on: Glutathione S-transferase, alpha 3 (Gsta3); test: as above
Description: as §1

[3] = tested on: Glutathione S-transferase, alpha 4 (Gsta4); test: as above
Description: as §1

[4] = tested on: Glutathione S-transferase, mu 1 (Gstm1); test: as above
Description: as §1

[5] = tested on: Glutathione S-transferase, mu 3 (Gstm3); test: as above
Description: as §1

[6] = tested on: Glutathione S-transferase, mu 4 (Gstm4); test: as above
Description: as §1

[7] = tested on: Glutathione S-transferase, mu 6 (Gstm6); test: as above
Description: as §1

[8] = tested on: Glutathione S-transferase, pi 1 (Gstp1); test: as above
Description: as §1

[9] = tested on: Glutathione S-transferase, theta 1 (Gstt1); test: as above
Description: as §1

[10] = tested on: Glutathione S-transferase, theta 2 (Gstt2); test: as above
Description: as §1

[11] = tested on: Gstm3, Gstm6, Gsta3, Gstt1, Gsta4, Gstm1, Gstm4, Gstt2, Gstp1, or Gstk1; test: Treatment of a human subject with a nitroxide antioxidant, serum level of GST; conditions: 1500 mg per day for 180 days
Description: (§2) A 70-kilogram human subject over the age of 65 is identified for decreased expression level of Gstm3, Gstm6, Gsta3, Gstt1, Gsta4, Gstm1, Gstm4, Gstt2, Gstp1, or Gstk1. The human subject is administered a dose of 1500 mg of a nitroxide antioxidant (e.g., Tempol) per day for 180 days. This may be administered in a single dose, or may be administered as a number of smaller doses over a 24-hour period: for example, three 500-mg doses at eight-hour intervals. Following treatment, the serum level of Gstm3, Gstm6, Gsta3, Gstt1, Gsta4, Gstm1, Gstm4, Gstt2, Gstp1, or Gstk1, is increased.
as §2, with “65 and having a cardiovascular disease” for “65”
(§3) A 70-kilogram human subject is identified for decreased expression level of Gstm3, Gstm6, Gsta3, Gstt1, Gsta4, Gstm1, Gstm4, Gstt2, Gstp1, or Gstk1. The human subject is administered a dose of 1500 mg of a nitroxide antioxidant (e.g., Tempol) per day for 180 days. This may be administered in a single dose, or may be administered as a number of smaller doses over a 24-hour period: for example, three 500-mg doses at eight-hour intervals. Following treatment, the serum level of Gstm3, Gstm6, Gsta3, Gstt1, Gsta4, Gstm1, Gstm4, Gstt2, Gstp1, or Gstk1, is increased.
as §3, with “Gstk1 that is associated with a disease (e.g., caused by or causing a disease).” for “Gstk1.”
as §3, with “human subject at risk of developing a cancer (e.g., colorectal cancer) or having a cancer is identified” for “human subject is identified”
as §3, with “human subject at risk of developing or having an autoimmune disease (e.g., rheumatoid arthritis) is identified” for “human subject is identified”
A 70-kilogram human subject of person at risk of developing, or having, a condition due to aging is identified. The human subject is administered a dose of 1500 mg of a nitroxide antioxidant (e.g., Tempol) per day for 180 days. […]

[12] = Tempol-treated vs control mice, microarray
[13] = Tempol-treated vs control mice, P-value 0.003
[14] = Tempol-treated vs control mice, P-value 0.001

## CC1(C)CC(O)CC(C)(C)N1[O] [Tempol, 4-hydroxy-2,2,6,6-tetramethylpiperidine-1-oxyl]
[1]; Tempol 5 mg/g of food from 14 to 31 months after birth, microarray, control mice 1140
  Expression, Tempol-treated mice: 1325
[1]; Tempol-treated vs control mice, P-value 0.015
  Fold change: 1.16
[1]; [12]
  Change in expression (in words): statistically significant increase in expression
[2]; Tempol 5 mg/g of food from 14 to 31 months after birth, microarray, control mice 668
  Expression, Tempol-treated mice: 1183
[2]; Tempol-treated vs control mice, P-value 0.004
  Fold change: 1.77
[2]; [12]
  Change in expression (in words): statistically significant increase in expression
[3]; Tempol 5 mg/g of food from 14 to 31 months after birth, microarray, control mice 195
  Expression, Tempol-treated mice: 284
[3]; Tempol-treated vs control mice, P-value 0.006
  Fold change: 1.45
[3]; [12]
  Change in expression (in words): statistically significant increase in expression
[4]; Tempol 5 mg/g of food from 14 to 31 months after birth, microarray, control mice 6291
  Expression, Tempol-treated mice: 8548
[4]; [13]
  Fold change: 1.36
[4]; [12]
  Change in expression (in words): statistically significant increase in expression
[5]; Tempol 5 mg/g of food from 14 to 31 months after birth, microarray, control mice 10
  Expression, Tempol-treated mice: 74
[5]; [14]
  Fold change: 7.52
[5]; [12]
  Change in expression (in words): statistically significant increase in expression
[6]; Tempol 5 mg/g of food from 14 to 31 months after birth, microarray, control mice 416
  Expression, Tempol-treated mice: 533
[6]; [13]
  Fold change: 1.28
[6]; [12]
  Change in expression (in words): statistically significant increase in expression
[7]; Tempol 5 mg/g of food from 14 to 31 months after birth, microarray, control mice 147
  Expression, Tempol-treated mice: 265
[7]; Tempol-treated vs control mice, P-value 0.034
  Fold change: 1.8
[7]; [12]
  Change in expression (in words): statistically significant increase in expression
[8]; Tempol 5 mg/g of food from 14 to 31 months after birth, microarray, control mice 5711
  Expression, Tempol-treated mice: 6812
[8]; Tempol-treated vs control mice, P-value 0.005
  Fold change: 1.19
[8]; [12]
  Change in expression (in words): statistically significant increase in expression
[9]; Tempol 5 mg/g of food from 14 to 31 months after birth, microarray, control mice 1017
  Expression, Tempol-treated mice: 1619
[9]; [14]
  Fold change: 1.59
[9]; [12]
  Change in expression (in words): statistically significant increase in expression
[10]; Tempol 5 mg/g of food from 14 to 31 months after birth, microarray, control mice 446
  Expression, Tempol-treated mice: 546
[10]; Tempol-treated vs control mice, P-value 0.035
  Fold change: 1.22
[10]; [12]
  Change in expression (in words): statistically significant increase in expression
[11]; Example 2: human subject over the age of 65 with decreased expression
  Serum level of GST following treatment: increased
[11]; Example 3: human subject over the age of 65 having a cardiovascular disease
  Serum level of GST following treatment: increased
[11]; Example 4: human subject with decreased expression level
  Serum level of GST following treatment: increased
[11]; Example 5: decreased expression associated with a disease
  Serum level of GST following treatment: increased
[11]; Example 6: human subject at risk of developing or having a cancer
  Serum level of GST following treatment: increased
[11]; Example 7: human subject at risk of developing or having an autoimmune disease
  Serum level of GST following treatment: increased
[11]; Example 8: human subject, condition due to aging
  Serum level of GST following treatment: increased
[11]; Example 9: human subject at risk of developing or having a neurodegenerative disease
  Serum level of GST following treatment: increased
[11]; Example 10: human subject having an infection
  Serum level of GST following treatment: increased
